This data set is described as follows: Singlet oxygen quantum yield (DMA chemical quenching). Type of data set: physicochemical. The settings on record: DMA quenching in DMF; 400-800 nm, 100 mW/cm^2. As to the method:
The potential of the C14 porphyrin as a photosensitising agent was assessed on the basis of the quantum yield (φΔ) of singlet oxygen (^1O2) generation by the photoexcited triplet state of the porphyrin, namely the number of ^1O2 molecules generated per number of absorbed light photons. In the present study φΔ was measured by following the decrease in the fluorescence emission of 9,10-dimethyl-anthracene (DMA) upon its photosensitised conversion into the corresponding non-fluorescent 9,10-endoperoxide. […] In a typical experiment, a DMA solution (1.5 ml, initial absorbance around 1 at 380 nm) and porphyrin solution (1.5 ml, initial absorbance around 0.4 at 420 nm) in N,N-dimethyl-formamide (DMF) were placed in a quartz cuvette with a 1 cm optical path and irradiated with 400-800 nm light wavelengths (Teclas lamp, 100 mW cm-2) at 20° C.±2° C. under gentle magnetic stirring for different periods of time up to 20 min. The DMA fluorescence emission was recorded in the 380-550 nm wavelength range with excitation at 360 nm. The first-order rate constant of the photoprocess was obtained by plotting In F0/F as a function of the irradiation time t, where F0 and F represent the fluorescence intensity at time 0 and time t, respectively. The slope of the linear plot thus obtained allowed the rate constant of the photoprocess to be calculated. […]

For the molecule `CCCCCCCCCCCCCC[n+]1ccc(-c2c3nc(c(-c4cc[n+](C)cc4)c4ccc([nH]4)c(-c4cc[n+](C)cc4)c4nc(c(-c5cc[n+](C)cc5)c5ccc2[nH]5)C=C4)C=C3)cc1.Cc1ccc(S(=O)(=O)[O-])cc1.Cc1ccc(S(=O)(=O)[O-])cc1.Cc1ccc(S(=O)(=O)[O-])cc1.Cc1ccc(S(=O)(=O)[O-])cc1` [C14, meso-tri(N-methyl-pyridyl), mono(N-tetradecyl-pyridyl)porphine], the “quantum yield of ^1O2 photogeneration” value is 0.46.

(Values after patent US20130296370A1, “COMPOSITION COMPRISING A PHOTOACTIVATABLE LARVICIDE” (UNIVERSITA DEGLI STUDI DI PADOVA, priority 2010, published 2013).)
